Measured values taken from the supplement of paper PMC8617591.

Experiments:
[1] = test system: Mycobacterium tuberculosis Erdman (autoluminescent); assay: total FIC50 (Loewe) at 50% inhibition, three-drug combination (log2); higher = more antagonistic
Procedure: (§1)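 DiaMOND equipotent three-drug combination dose responses (10 doses, 1.5- or 2-fold spacing, centred on IC90) against autoluminescent M. tuberculosis Erdman in 8 in vitro models. Read-out is OD600, or luminescence for the intracellular and dormancy models, normalised to untreated wells. Hill-fit Einf, AUC25 and GRinf are potency metrics; FIC50 and FIC90 are total Loewe fractional inhibitory concentrations as log2 (negative = synergy).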

[2] = test system: Mycobacterium tuberculosis Erdman (autoluminescent); assay: total FIC90 (Loewe) at 90% inhibition, three-drug combination (log2); higher = more antagonistic
Procedure: as §1

[3] = test system: Mycobacterium tuberculosis Erdman (autoluminescent); assay: Einf, fitted maximum growth inhibition of three-drug combination (fraction); higher = stronger maximal inhibition
Procedure: as §1

[4] = test system: Mycobacterium tuberculosis Erdman (autoluminescent); assay: AUC25, normalised area under dose response up to IC25 (three-drug combination) (fraction (0-1)); higher = more potent at low dose
Procedure: as §1

[5] = test system: Mycobacterium tuberculosis Erdman (autoluminescent); assay: GRinf, maximum normalised growth rate inhibition (three-drug combination) (unitless (-1 to 1)); higher = less effect (negative = killing)
Procedure: as §1

COc1nc2ccc(Br)cc2cc1[C@@H](c1ccccc1)[C@@](O)(CCN(C)C)c1cccc2ccccc12 [bedaquiline] + CC(C)/N=c1\cc2n(-c3ccc(Cl)cc3)c3ccccc3nc-2cc1Nc1ccc(Cl)cc1 [clofazimine] + NC(=O)c1cnccn1 [pyrazinamide]
Conditions | AUC25, [4] | Einf, [3] | GRinf, [5] | total FIC50, [1] | total FIC90, [2]
in vitro model: acidic pH 5.7, time point: constant (~7 days, model-specific) | 0.0929 | 0.862 | -0.349 | 0.0846 | –
in vitro model: acidic pH 5.7, time point: terminal (~4-5 doublings, model-specific) | 0.074 | 0.968 | -0.284 | 0.193 | -0.409
in vitro model: intracellular J774, time point: constant = terminal | – | 0.963 | -0.197 | – | -0.109

Conditions | AUC25, [4] | Einf, [3] | GRinf, [5] | total FIC50, [1] | total FIC90, [2]
in vitro model: butyrate, time point: constant (~7 days, model-specific) | 0.0756 | 0.946 | -0.0789 | -0.624 | -0.916
in vitro model: butyrate, time point: terminal (~4-5 doublings, model-specific) | 0.0582 | 0.977 | -0.0813 | -0.595 | -1.03
in vitro model: cholesterol 0.05 mM, time point: constant (~7 days, model-specific) | 0.0812 | 0.732 | -0.17 | – | –
in vitro model: cholesterol 0.05 mM, time point: terminal (~4-5 doublings, model-specific) | 0.0926 | 0.939 | -0.225 | 0.513 | –
in vitro model: cholesterol-high 0.2 mM, time point: constant (~7 days, model-specific) | 0.06 | 0.921 | -0.227 | -0.0552 | –
in vitro model: cholesterol-high 0.2 mM, time point: terminal (~4-5 doublings, model-specific) | 0.0776 | 1 | -0.556 | 0.345 | -0.162
in vitro model: dormancy (butyrate + nitrate, low O2), time point: constant (~7 days, model-specific) | 0.0795 | 0.924 | 0.201 | -1.18 | -1.48
in vitro model: dormancy (butyrate + nitrate, low O2), time point: terminal (~4-5 doublings, model-specific) | 0.0671 | 0.991 | -0.181 | -0.97 | -1.37
in vitro model: standard 7H9 glycerol, time point: constant = terminal | 0.0904 | 0.961 | -0.0928 | -0.389 | –
in vitro model: valerate, time point: constant (~7 days, model-specific) | 0.103 | 0.884 | 0.0304 | 0.388 | –
in vitro model: valerate, time point: terminal (~4-5 doublings, model-specific) | 0.0692 | 0.929 | 0.0196 | 0.415 | 0.773

NNC(=O)c1ccncc1 [isoniazid] + COc1c(N2C[C@@H]3CCCN[C@@H]3C2)c(F)cc2c(=O)c(C(=O)O)cn(C3CC3)c12 [moxifloxacin] + CO[C@H]1/C=C/O[C@@]2(C)Oc3c(C)c(O)c4c(O)c(c(/C=N/N5CCN(C6CCCC6)CC5)c(O)c4c3C2=O)NC(=O)/C(C)=C\C=C\[C@H](C)[C@H](O)[C@@H](C)[C@@H](O)[C@@H](C)[C@H](OC(C)=O)[C@@H]1C [rifapentine]
Conditions | AUC25, [4] | Einf, [3] | GRinf, [5] | total FIC50, [1] | total FIC90, [2]
in vitro model: acidic pH 5.7, time point: constant (~7 days, model-specific) | 0.0764 | 0.856 | -0.0715 | 0.631 | –
in vitro model: acidic pH 5.7, time point: terminal (~4-5 doublings, model-specific) | 0.0472 | 0.974 | -0.112 | 0.694 | 0.483
in vitro model: intracellular J774, time point: constant = terminal | – | 0.952 | -0.208 | – | 0.563

Conditions | AUC25, [4] | Einf, [3] | GRinf, [5] | total FIC50, [1] | total FIC90, [2]
in vitro model: butyrate, time point: constant (~7 days, model-specific) | 0.0757 | 0.917 | 0.00281 | 0.673 | 0.414
in vitro model: butyrate, time point: terminal (~4-5 doublings, model-specific) | 0.0584 | 0.965 | 0.00571 | 0.595 | 0.447
in vitro model: cholesterol 0.05 mM, time point: constant (~7 days, model-specific) | 0.102 | 0.644 | -0.051 | 0.862 | –
in vitro model: cholesterol 0.05 mM, time point: terminal (~4-5 doublings, model-specific) | 0.0878 | 0.88 | -0.115 | 0.866 | 0.95
in vitro model: cholesterol-high 0.2 mM, time point: constant (~7 days, model-specific) | 0.0823 | 0.922 | -0.472 | 0.636 | –
in vitro model: cholesterol-high 0.2 mM, time point: terminal (~4-5 doublings, model-specific) | 0.0703 | 1 | -0.778 | 0.916 | 0.976
in vitro model: dormancy (butyrate + nitrate, low O2), time point: constant (~7 days, model-specific) | 0.0676 | 0.866 | 0.268 | 0.401 | 0.429
in vitro model: dormancy (butyrate + nitrate, low O2), time point: terminal (~4-5 doublings, model-specific) | 0.0486 | 0.97 | -0.0791 | 0.655 | 0.61
in vitro model: standard 7H9 glycerol, time point: constant = terminal | 0.0438 | 0.911 | 0.0464 | 0.774 | 0.752
in vitro model: valerate, time point: constant (~7 days, model-specific) | 0.0564 | 0.866 | -0.0209 | 0.608 | –
in vitro model: valerate, time point: terminal (~4-5 doublings, model-specific) | 0.0386 | 0.933 | -0.00377 | 0.659 | 0.621

CC(C)/N=c1\cc2n(-c3ccc(Cl)cc3)c3ccccc3nc-2cc1Nc1ccc(Cl)cc1 [clofazimine] + CC[C@@H](CO)NCCN[C@@H](CC)CO [ethambutol] + NC(=O)c1cnccn1 [pyrazinamide]
Conditions | AUC25, [4] | Einf, [3] | GRinf, [5] | total FIC50, [1] | total FIC90, [2]
in vitro model: acidic pH 5.7, time point: constant (~7 days, model-specific) | 0.112 | 0.725 | -0.183 | -0.812 | –
in vitro model: acidic pH 5.7, time point: terminal (~4-5 doublings, model-specific) | 0.0918 | 0.954 | -0.232 | 0.156 | -0.781
in vitro model: intracellular J774, time point: constant = terminal | – | 1 | -0.398 | – | -0.408

Conditions | AUC25, [4] | Einf, [3] | GRinf, [5] | total FIC50, [1] | total FIC90, [2]
in vitro model: butyrate, time point: constant (~7 days, model-specific) | 0.1 | 0.913 | -0.122 | -0.0529 | –
in vitro model: butyrate, time point: terminal (~4-5 doublings, model-specific) | 0.075 | 0.953 | -0.0327 | 0.0941 | -0.127
in vitro model: cholesterol 0.05 mM, time point: constant (~7 days, model-specific) | 0.147 | 0.758 | -0.487 | – | –
in vitro model: cholesterol 0.05 mM, time point: terminal (~4-5 doublings, model-specific) | 0.123 | 0.86 | -0.157 | 1.39 | –
in vitro model: cholesterol-high 0.2 mM, time point: constant (~7 days, model-specific) | 0.1 | 0.955 | -0.718 | 0.509 | –
in vitro model: cholesterol-high 0.2 mM, time point: terminal (~4-5 doublings, model-specific) | 0.0851 | 0.998 | -0.902 | 0.581 | 0.758
in vitro model: dormancy (butyrate + nitrate, low O2), time point: constant (~7 days, model-specific) | 0.0979 | 0.826 | 0.349 | -0.344 | –
in vitro model: dormancy (butyrate + nitrate, low O2), time point: terminal (~4-5 doublings, model-specific) | 0.124 | 0.999 | -0.842 | 0.325 | 1.52
in vitro model: standard 7H9 glycerol, time point: constant = terminal | 0.109 | 0.939 | -0.163 | 0.315 | –
in vitro model: valerate, time point: constant (~7 days, model-specific) | 0.117 | 0.792 | 0.253 | 0.627 | –
in vitro model: valerate, time point: terminal (~4-5 doublings, model-specific) | 0.0625 | 0.898 | 0.205 | 0.395 | –
